{"source": "paper PMC9958131", "about": "(Nature Communications, 2023)", "note": "No end group written: not given here. *: point of attachment. Cam = NC(=O)C*"}
{"test_system": "cathepsins B, S, and H", "assay": "Proteolytic mapping (ProtMap) of native and citrullinated autoantigens by cathepsins B, S, and H with LFQ-MS", "assay_type": "biochemical, human", "conditions": "sites found over all samples of the cathepsin B, H digests, MSFragger search", "protocol": "Prior to proteolytic mapping, citrullinated antigens were generated by incubating recombinant human antigens—hnRNP A2/B1 (RA33; custom-made as previously described by in ref. [24]), fibrinogen (Cayman Chemical), and vimentin (PeproTech)—with Sf9-purified peptidylarginine deiminase 2 or 4 (PAD2 or PAD4; Inova) at a 17:1 mass ratio in citrullination buffer (100 mM Tris, 1 mM DTT, 5 mM CaCl2, pH 7.5) for 4 h at 37 °C. Native antigens were diluted in the same buffer without PAD enzymes and without incubation at 37 °C to prevent degradation. Citrullination was confirmed by anti-peptidylcitrulline (clone F95, EMD Millipore) immunoblotting. […] The resulting peptide repertoires were then analyzed by LFQ–MS.\nPrior to MS, the samples were reduced and alkylated by incubating in 10 mM Tris (2-Carboxyethyl) phosphine hydrochloride (TCEP, v/v) and 50 mM chloroacetamide (CAA, v/v) for 1 h at room temperature. […] The peptide samples were analyzed on an Orbitrap Fusion Lumos Tribrid mass spectrometer interfaced with an Ultimate 3000 RS Autosampler nanoflow liquid chromatography system (Thermo Scientific). […] The most intense ions with charge states of 2–5 were isolated in a 3-s cycle, fragmented using higher-energy collisional dissociation (HCD) fragmentation with 32% normalized collision energy, and detected at a mass resolution of 50,000 at an m/z of 200. […]"}
{"substance": "Vimentin: recombinant human vimentin (PeproTech), RA autoantigen; native or citrullinated by PAD2 or PAD4", "Modifications (deamidated arginine = citrullinated sites detected)": "Deamidated [R13; R23; R36; R64; R100; R113; R158; R175; R184; R196; R207; R270; R273; R304; R310; R364; R401; R410; R424; R440; R450]"}
{"test_system": "PAD2 and PAD4", "assay": "Citrullination site mapping of fibrinogen and vimentin by trypsin digestion and mass spectrometry (protein-level sheet, one search over native, PAD2-cit and PAD4-cit samples)", "assay_type": "biochemical, human", "conditions": "modified residues found per protein; Deamidated [R..] = deamidated (citrullinated) arginine positions; trypsin digest, Sequest HT; not split by sample (native, PAD2-citrullinated, PAD4-citrullinated fibrinogen and vimentin)", "description": "(§1) Description: Raw mass spectrometry data for proteolytic mapping of fibrinogen, vimentin, and hnRNP A2/B1 by cathepsins B, S, and H (sheets 1-6); citrullination site mapping of fibrinogen and vimentin by trypsin digestion (sheets 7-8); and the natural antigen processing assay with native, PAD2-citrullinated (PAD2-cit), and PAD4-citrullinated (PAD4-cit) fibrinogen (sheets 9-11)."}
{"substance": "A0A4W9A917 [Peptide A0A4W9A917]", "Modifications": "Deamidated [R365]"}
{"substance": "P01024 [Peptide P01024]", "Modifications": "Deamidated [R315; R386; R462; R710; R712; R1134; R1507; R1512; R1532; R1582]"}
{"substance": "P01834 [Peptide P01834]", "Modifications": "Deamidated [R1]"}
{"substance": "P01876 [Peptide P01876]", "Modifications": "Deamidated [R253; R263; R273]"}
{"substance": "P02751 [Peptide P02751]", "Modifications": "Deamidated [R83; R107; R114; R130; R155; R156; R241; R252; R265; R272; R290; R479; R694; R784; R1157; R1197; R1473; R1525; R1543; R1664; R1844; R1909; R1950; R1982; R2165; R2335; R2340; R2357; R2417; R2426; R2447; R2451]"}
{"substance": "P02768 [Peptide P02768]", "Modifications": "Deamidated [R105; R122; R138; R141; R169; R281; R434; R452; R469; R509]"}
{"substance": "P04259 (ATGGGLSSVGGGSSTIK) [Peptide P04259]", "Modifications": "Deamidated [R182; R222; R326; R369]"}
{"substance": "P04264 (GGGFGGGGIGGGGFGG) [Peptide P04264]", "Modifications": "Deamidated [R29; R65; R239; R267; R277; R386; R432; R483; R518; R549]"}
{"substance": "P04275 (IDVPWNVVPEK) [Peptide P04275]", "Modifications": "Deamidated [R236; R768; R782; R816; R906; R945; R1204; R1205; R1597; R1641; R1853; R1888; R1916; R1921; R1924; R1943; R1956; R1998; R2099; R2185; R2464; R2535; R2663; R2681; R2730]"}
{"substance": "P05160 (LIENGYFHPVK) [Peptide P05160]", "Modifications": "Deamidated [R69; R147; R271; R273; R380; R424; R432; R463; R507; R603]"}
{"substance": "P08779 [Peptide P08779]", "Modifications": "Deamidated [R127; R284; R441]; Met-loss+Acetyl [N-Term]"}
{"substance": "P13645 (LQIDNARLAADDF) [Peptide P13645]", "Modifications": "Deamidated [R15; R35; R156; R228; R245; R256; R322; R333; R399; R441; R450]"}
{"substance": "P17661 (VELQELNDRFANYIEKVR; also: deamidated, site not given here) [Peptide P17661]", "Modifications": "Deamidated [R118; R386]"}
{"substance": "P23142 (VRPIVGPFH) [Peptide P23142]", "Modifications": "Deamidated [R90; R179; R181; R287; R289; R343; R353; R467; R561; R562; R582; R642]"}
{"substance": "P35527 (GGGGGGGLGSGGSIRSSY) [Peptide P35527]", "Modifications": "Deamidated [R95; R163; R233; R250; R261; R327; R374; R427]"}
{"substance": "P35908 (GPGGFGPGGYPGGIHE) [Peptide P35908]", "Modifications": "Deamidated [R45; R122; R221; R238; R247; R341; R384; R524; R544]"}
{"substance": "P41219 (EYQELLNVK) [Peptide P41219]", "Modifications": "Deamidated [R397]"}
{"substance": "P48668 (QC(Cam)ASLQAAIADAEQR) [Peptide P48668]", "Modifications": "Deamidated [R182; R222; R326]"}
{"substance": "P49771 (LLQETSEQLVALKPWITR; also: deamidated, site not given here) [Peptide P49771]", "Modifications": "Deamidated [R81; R85; R100; R147]"}
{"substance": "Q14525 (EVEQWFATQTEELNK) [Peptide Q14525]", "Modifications": "Deamidated [R293]"}
{"substance": "Q15323 (LNVEVDAAPTVDLNR) [Peptide Q15323]", "Modifications": "Deamidated [R293]"}
{"substance": "Vimentin: recombinant human vimentin (PeproTech), RA autoantigen; native or citrullinated by PAD2 or PAD4", "Modifications": "Deamidated [R13; R23; R28; R36; R45; R50; R64; R69; R71; R78; R100; R113; R122; R145; R155; R158; R159; R170; R175; R184; R186; R196; R207; R217; R222; R270; R273; R304; R310; R320; R321; R342; R345; R364; R378; R381; R401; R410; R424; R440; R450]"}
{"test_system": "recombinant human PAD2 and PAD4", "assay": "Citrullination site mapping by trypsin digestion and mass spectrometry; protein-level modifications over native, PAD2- and PAD4-citrullinated samples combined", "assay_type": "biochemical", "conditions": "trypsin digest, Sequest HT search; co-identified proteins in the fibrinogen and vimentin samples (native, PAD2-cit, PAD4-cit); not split by sample or enzyme", "description": "as §1"}
{"substance": "Clusterin", "Modifications (Deamidated [R...] = citrullinated arginine positions found)": "Deamidated [R306; R425]"}
{"substance": "Filaggrin-2", "Modifications (Deamidated [R...] = citrullinated arginine positions found)": "Deamidated [R63]"}
{"substance": "Glyceraldehyde-3-phosphate dehydrogenase", "Modifications (Deamidated [R...] = citrullinated arginine positions found)": "Deamidated [R80]"}
{"substance": "Heat shock cognate 71 kDa protein", "Modifications (Deamidated [R...] = citrullinated arginine positions found)": "Deamidated [R323]"}
{"substance": "Hornerin", "Modifications (Deamidated [R...] = citrullinated arginine positions found)": "Deamidated [R1507; R2447; R3930]"}
{"substance": "Interleukin-8", "Modifications (Deamidated [R...] = citrullinated arginine positions found)": "Deamidated [R74]"}
{"substance": "Pre-mRNA-processing-splicing factor 8", "Modifications (Deamidated [R...] = citrullinated arginine positions found)": "Deamidated [R362]"}
{"substance": "Serotransferrin", "Modifications (Deamidated [R...] = citrullinated arginine positions found)": "Deamidated [R239]"}
{"substance": "Tubulin beta chain", "Modifications (Deamidated [R...] = citrullinated arginine positions found)": "Deamidated [R2; R121; R156; R162]"}
{"substance": "Tubulin beta-2A chain", "Modifications (Deamidated [R...] = citrullinated arginine positions found)": "Deamidated [R2; R121]"}
{"test_system": "PAD2 / PAD4", "assay": "Citrullination site mapping of fibrinogen and vimentin by trypsin digestion, protein-level sheet (native, PAD2- and PAD4-citrullinated samples searched together)", "assay_type": "biochemical, Homo sapiens", "conditions": "deamidated Arg (= citrullinated) positions found by Sequest HT after trypsin digestion; one list for all six samples (native, PAD2-, PAD4-citrullinated fibrinogen and vimentin); co-purified/contaminant proteins", "description": "as §1"}
{"substance": "MYLNVIINNTWQGDFSQIKVFLMTLKNMISKLKTECGCQFTSKLEGMFRDMSISNTTMDEFRQHLQATGVSLGGVDLTVRVLTTGYWPTQSATPKCNIPPAPRHAFEIFRRFYLAKHSGRQLTLQHHMGSADLNATFYGPVKKEDGSEVGVGGAQVTGSNTRKHILQVSTFQMTILMLFNNREKYTFEEIQQETDIPERELVRALQSLACGKPTQRVLTKEPKSKEIENGHIFTVNDQFTSKLHRVKIQTVAAKQGESDPERKETRQKVDDDRKHEIEAAIVRIMKSRKKMQHNVLVAEVTQQLKARFLPSPVVIKKRIEGLIEREYLARTPEDRKVYTYVA [Peptide A0A087WTG3]", "Modifications": "Deamidated [R283]"}
{"substance": "P22090 (LREC(Cam)LPLIVFLR) [Peptide P22090]", "Modifications": "Deamidated [R39]"}
{"substance": "P62269 (IPDWFLNRQK; also: deamidated, site not given here) [Peptide P62269]", "Modifications": "Deamidated [R86]"}
